Assay results reported in US6584980B1, “Tobacco products with stabilized additives having vitamin E activity” (Rousseau Research, Institute, priority 1998, dated 2003).

Tests used:
[1] = stand-alone additive, apart from an alcohol mixture; cited from earlier work
non-smoker = experiment: Comparison of a normal filtered cigarette and cigarettes with oily Vitamin E injected into the filter or the tobacco, puffs by a non-smoker; type: in vivo; settings: for lung irritation and coughing: three puffs, non-smoker
From the text: A second comparison was made between a normal filtered cigarette, a filtered cigarette with oily Vitamin E injected into the filter and oily Vitamin E injected into the length of the tobacco. In this second comparison, the control cigarette was a normal MARLBORO® cigarette. In two separate MARLBORO® cigarettes, oily Vitamin E was taken from a Vitamin E capsule with a syringe and injected into the filter of one cigarette and into the length of the tobacco of the other cigarette.
The three cigarettes where then lit with a butane lighter and three equal, alternating puffs were taken from each cigarette by a non-smoker. […] The cigarette with Vitamin E along the length of the tobacco yielded no irritation. Moreover, the flavor of the Vitamin E tobacco cigarette gave the impression of having been enhanced.

[2] = tobacco air curing, vacuum infiltration; cited from earlier work
smoker and non-smoker = experiment: Comparison of a normal filterless cigarette and a filterless cigarette with dry Vitamin E analog, smoked; type: in vivo
From the text: A comparison was made between a normal filterless cigarette and a filterless cigarette modified to include a substantially pure, “dry” form of Vitamin E analog. For this comparison, […] of CHESTERFIELD® tobacco were removed from a CHESTERFIELD® cigarette and mixed with 0.1 grams of Vitamin E acid succinate. The mixed tobacco blend was formed into a filterless cigarette using a Rizla auto rolling box. A control cigarette, without Vitamin E analog additive, was also formed using the same Rizla auto rolling box.

non-tobacco user = experiment: Comparison of a normal smokeless tobacco wad and a wad with dry Vitamin E analog, placed between cheek and gum; type: in vivo; settings: 0.1 grams mixed with 10.0 grams SKOAL long cut smokeless tobacco, 1.0 gram wad between cheek and gum
From the text: A third comparison was made between a normal wad of smokeless tobacco and a wad of smokeless tobacco modified to include a substantially pure, “dry” form of Vitamin E analog. For this comparison, 1.0 gram of unmodified SKOAL® long cut smokeless tobacco (i.e., snuff) was first placed in the mouth of a non-tobacco user between the cheek and gum. This unmodified smokeless tobacco produced a pleasant flavor but also a simultaneous burning sensation in the mouth, throat and esophagus which, along with an induced cough, forced the non-tobacco user to spit out the unmodified smokeless tobacco. To clear the burning sensation from mouth, the non-tobacco user washed mouth out with water. Nonetheless, the burning sensation persisted in the mouth and throat for over 5 minutes after the initial washing.
Approximately four hours later, long enough to ensure the sensitivity and the burning sensation had completely subsided, the non-tobacco user then mixed 0.1 grams of Vitamin E acid succinate obtained from the Eastman Chemical Corporation of Kingsport, Tenn. with 10.0 grams of SKOAL® long cut smokeless tobacco. A 1.0 gram wad of this Vitamin E modified smokeless tobacco was then placed in the mouth of the non-tobacco user between the cheek and gum. Like the unmodified snuff, this Vitamin E modified snuff produced a similar pleasant flavor.

Cc1c(C)c2c(c(C)c1O)CC[C@@](C)(CCC[C@H](C)CCC[C@H](C)CCCC(C)C)O2 [Vitamin E, d-alpha tocopherol]
neutralizing NNN [1]: ineffective | lung irritation and coughing (non-smoker; oily Vitamin E injected into the filter of a MARLBORO cigarette, control irritated lungs and induced coughing): less irritating but still induced an unpleasant lung reaction and a slight cough | lung irritation and coughing (non-smoker; oily Vitamin E injected into the length of the tobacco of a MARLBORO cigarette): no irritation | beneficial effect on irritation, retest on the same samples (non-smoker; retest after several days, taken to indicate the Vitamin E had oxidized/metabolized): the beneficial effect was gone

Cc1c(C)c2c(c(C)c1O)CC[C@@](C)(CCC[C@H](C)CCC[C@H](C)CCCC(C)C)O2 [alpha-tocopherol]
diminution in concentration during the curing process [2]: 25%

Cc1c(C)c2c(c(C)c1OC(=O)CCC(=O)O)CC[C@@](C)(CCC[C@H](C)CCC[C@H](C)CCCC(C)C)O2 [Vitamin E acid succinate, d-alpha tocopheryl acid succinate]
throat or lung irritation when smoked (smoker and non-smoker; 0.1 grams mixed with 7.5 grams CHESTERFIELD tobacco, filterless cigarette, smoker and non-smoker, control caused throat and lung irritation): no throat or lung irritation | throat or lung irritation, retest on the same samples (smoker and non-smoker; retest after several days and again after several weeks): the same results | irritation (burning sensation) of mouth, throat and esophagus (non-tobacco user): completely non-irritating
